Consider four substances from patent US7666414B2, “Methods for treating prostate cancer using modified antibodies to prostate-specific membrane antigen” (Cornell Research Foundation, Inc., priority 2001, dated 2010).

Read-outs that look alike come from different tables or passages of the source.

In one data set the test system is LNCaP cells. Put plainly: Immunoreactivity by the method of Lindmo. The conditions noted are these: 111In labeled, binding extrapolated to infinite antigen excess. Also noted: species or system human. The method, then:
The solutions were incubated at 4° C. for 60 minutes prior to being isolated (by centrifugation) and washed with ice cold PBS. The membranes were then counted in a gamma counter with standards representing the total radioactivity added. The data was plotted using the Lindmo method as the reciprocal of the substrate concentration α-axis) against the reciprocal of the fraction bound (y-axis). The data was then fitted according to a least squares linear regression method (Sigma Plot) and the y intercept taken as the reciprocal of the immunoreactivity. A similar method using membranes derived from LNCaP cells, and subsequent centrifugation isolation of the membranes, gave similar results. The results gave an average immunoreactivity of 72% (see Table 11).
Briefly five test solutions were prepared (in duplicate) containing 10,000 cpm of ^111Indium labeled-DOTA-deJ591 and various amounts of LNCaP cells or cell membranes, in a total test volume of 250 μL of 0.2% BSA 10 mM HEPES. The solutions were incubated at 4° C. for 60 minutes prior to being isolated (by centrifugation) and washed with ice cold PBS. The membranes were then counted in a gamma counter with standards representing the total radioactivity added. The data was plotted using the Lindmo method as the reciprocal of the substrate concentration α-axis) against the reciprocal of the fraction bound (y-axis). The data was then fitted according to a least squares linear regression method (Sigma Plot) and the y intercept used as the reciprocal of the immunoreactivity. The target for immunoreactivity was not less than 75%.

A further data set relates to prostate tissue. Put plainly: Immunohistochemistry of DOTA conjugated deJ591. As for the experimental part: Immunohistochemistry was performed on the DOTA conjugated, partially purified, bulk intermediate deJ591.
Data set [1] has as its target prostate specific membrane antigen (Homo sapiens, UniProt Q04609). Description: Competitive binding sites on PSMA. The conditions noted are these: relative to J591, J533, E99 site. An excerpt:
To kill or ablate normal, benign hyperplastic, and cancerous prostate epithelial cells, a first antibody, e.g., a modified antibody, can be conjugated with a prodrug which is activated only when in close proximity with a prodrug activator. The prodrug activator is conjugated with a second antibody, e.g., a second modified antibody according to the present invention, preferably one that binds to a non-competing site on the prostate specific membrane antigen molecule. Whether two modified antibodies bind to competing or non-competing binding sites can be determined by conventional competitive binding assays. […] Monoclonal antibody J415, on the other hand, binds to a binding site that is non-competing with the site to which J591, J533, and E99 bind. Thus, for example, the first modified antibody can be one of J591, J533, and E99, and the second modified antibody can be J415. Alternatively, the first modified antibody can be J415, and the second modified antibody can be one of J591, J533, and E99. Drug-prodrug pairs suitable for use in the practice of the present invention are described in Blakely et al., “ZD2767, an Improved System for Antibody-directed Enzyme Prodrug Therapy That Results in Tumor Regressions in Colorectal Tumor Xenografts,” (1996) Cancer Research, 56:3287-3292, which is hereby incorporated by reference.

Data set [2] relates to recurrent, progressing prostate cancer. Description: Phase I trial of 111In-DOTA-deJ591, four weekly doses. Format: in vivo, human. The method, then:
Patients with recurrent, progressing prostate cancer received four weekly doses of ^111In-DOTA-deJ591. Doses were escalated in cohorts of three patients and ranged from 62.5-500 mg/m2 (total). […] After the first dose, patients were imaged on the day of injection (day 0) and days 1, 2, 4 and 7.
Serum PK, immune reaction and toxicity were evaluated after each dose for a minimum of 12 weeks.

For data set [3], the system named is hormone refractory prostate cancer. Format: in vivo, human. An excerpt:
All patients had rising PSA levels on three consecutive measurements.

The subject of data set [4] is vascular endothelium of solid tumors. Put plainly: Phase I trial of 111In-DOTA-deJ591 in refractory solid tumor malignancies. The conditions noted are these: for Plasma clearance (T1/2): human. It is filed as in vivo. The text has this: Eligible patients were those with refractory solid tumor malignancies whose tumor types are known to express PSMA on the neovasculature.
Patients the participated in the study included eight renal cell cancer patients, four bladder cancer patients, two colon cancer patients, and one pancreas cancer patient.

Data set [5] concerns PSMA-positive human LNCaP tumors. Description: Biodistribution of 131I labeled MAbs in nude mice bearing LNCaP tumors. The conditions noted are these: mouse, in vivo. The method, then: (§1) Prior to use, the cells were trypsinized, counted and suspended in Matrigel (Collaborative Biomedical Products, Bedford, Mass.). Nu/Nu Balb C mice 8-10 weeks of age were inoculated, in the right and left flanks, with a suspension of 5×10^6 LNCaP cells in Matrigel (BD Biosciences, Bedford Mass.). After a period of 14-18 days, tumors (100-300 mg) had developed. The PSMA-negative DU145 and PC3 cells were implanted in nude mice in an identical manner.
(§2) The PSMA-positive and PSMA-negative tumor bearing mice were injected, via the tail vein, with 80 KBq of the iodinated MAb (400 MBq/mg) in 200 μL of PBS (pH 7.4, 0.2% BSA). Groups of animals (3-8/group) were sacrificed after 2, 4 or 6 days. The major organs and tumors were recovered. The tissue samples were weighed and counted, with appropriate standards in an automatic NaI(Tl) counter. These measured relative activity data (cpm) were background corrected and expressed as a percentage of the injected dose per gram (% ID/g). […] J415, J591 and 7E11 were labeled with ^111In (100 MBq/mg). 80 KBq of the ^111In labeled MAbs were injected in groups of animals. The % ID/g in various organs and tumor tissues was determined at 2-6 days post injection in a similar way as described for ^131I labeled MAbs.

The test system is the same in data set [6]. Also noted: species or system nude mice. The conditions noted are these: mouse, in vivo. As for the experimental part:
as §1, §2
For the imaging studies, animals were injected with 2 MBq of ^111In-DOTA-J591. […]

The subject of another data set is prostate cancer. The conditions noted are these: in vivo. The method, then: A single patient was treated with mAb deJ591. This patient had bulky, poorly differentiated prostate cancer and had failed multiple courses of external beam radiotherapy as well as multiple forms of hormonal and non-hormonal chemotherapy. […] Four doses (#1, 3, 6 and 11) were trace-radiolabeled with either ^131Iodine or ^111Indium for pharmacokinetic determinations and biodistribution. The mean effective serum residence time of ^131I-deJ591 ranged from 31.9 to 51.3 hours, depending on the dose. Tumor localization to known tumor sites was excellent after each of the radiolabeled doses over the five month period. Dose twelve was radiolabeled with a therapeutic quantity of ^90Yttrium (19mCi) calculated to deliver less than a 150 rad dose to the blood. This dose was determined in consultation with the FDA and took into account prior radiotherapy delivered by external beam and by 131 Iodine. […] The patient's platelet count dropped to 64,000 (normal: 150,000-300,000) at five weeks post ^90Y-DOTA-deJ591 administration (as an anticipated result of radiation to the bone marrow) prior to spontaneously returning to normal levels. […] The patient experienced no side effects. The patient's PSA declined from 63 at the time of deJ591-DOTA-9Y administration to 36. […] This patient succumbed to their metastatic prostate cancer ten and one-half months after initiating treatment with ^90Y-DOTA-deJ591.

In data set [7] the test system is hormone-refractory prostate cancer metastases. Put plainly: Nuclear imaging with 111In or 177Lu labeled deJ591 versus standard imaging. Format: in vivo, human. As for the experimental part: The antibody scans were compared to standard imaging studies (bone, CT or MR scans) obtained on each patient to assess the underlying sensitivity, specificity, and accuracy of deJ591 targeting to metastatic sites. Bony and soft tissue metastases were evaluated independently.

For data set [8], the system named is recurrent prostate cancer. Put plainly: Phase II trial of deJ591 with low-dose subcutaneous IL-2. Format: in vivo, human. The conditions noted are these: in combination with daily low-dose subcutaneous IL-2; six patients entered. The method, then: Patients receive daily low-dose subcutaneous rIL-2 (1.2×10^6 IU/m^2/day) on day 1 through day 56. […] IL-2 administration is continued during this period another two weeks afterwards. This 8-week regimen constitutes one cycle of therapy. Patients are evaluated for response at the end of one cycle. Patients who have responded to therapy or have stable disease are eligible for additional cycles of therapy. Additional cycles will be initiated when there is at least two consecutive rises in PSA at least 2 weeks apart. […] The dose of antibody will be adjusted based on additional data analysis of patients treated in this manner.

In data set [9] the test system is PSMA-positive CWR22 xenografts. Description: Efficacy in PSMA-positive CWR22 xenografts. It is filed as in vivo, C.B-17 scid mice. The method, then:
Experiment: Male SCID mice were implanted by serial passage of CWR22 prostate tumor xenograft. […] All treatments were given intravenously. Tumor growth and animal health were continually monitored throughout the study with tumor growth measured every 3 days.
Experiment: Male C.B-17 SCID mice bearing CWR22 xenografts approximately 200 mm^3 in size received IV injections (200 μL constant volume) of the test articles according to the dose and schedule as shown in Table 22.
Male C.B-17 scid mice bearing CWR22 xenografts approximately 200 mm^3 in size received IV injections (200 μL constant volume) of the test articles according to the dose and schedule shown in the Table 23.
The objective of this study was to determine how much the dosing interval could be increased at this dosage before a loss of efficacy in terms of TGD would be observed. […] The growth delays for the other schedules were: q7d, 53.0 days; q21d, 48.0 days; and q28d, 26.9 days. Similar to other studies using the CWR22 xenograft model, no curative responses were observed, with all tumors eventually resuming growth (FIG. 18).
Experiment: Male SCID mice were implanted by serial passage of CWR22 prostate tumor xenograft. […] All treatments were given intravenously and on a schedule of every three days for 5 doses. Tumor growth and animal health were continually monitored throughout the study with tumor growth measured every 3 days.
Experiment: Male SCID mice were implanted by serial passage of CWR22 prostate tumor xenograft. […] All treatments were given intravenously and on a schedule of every seven days for 5 doses. Tumor growth and animal health were continually monitored throughout the study with tumor growth measured every 3 days.

Setting [10] is: four weekly doses, 62.5-500 mg/m2 total.

prostate specific membrane antigen, sequence (Q04609 whole entry): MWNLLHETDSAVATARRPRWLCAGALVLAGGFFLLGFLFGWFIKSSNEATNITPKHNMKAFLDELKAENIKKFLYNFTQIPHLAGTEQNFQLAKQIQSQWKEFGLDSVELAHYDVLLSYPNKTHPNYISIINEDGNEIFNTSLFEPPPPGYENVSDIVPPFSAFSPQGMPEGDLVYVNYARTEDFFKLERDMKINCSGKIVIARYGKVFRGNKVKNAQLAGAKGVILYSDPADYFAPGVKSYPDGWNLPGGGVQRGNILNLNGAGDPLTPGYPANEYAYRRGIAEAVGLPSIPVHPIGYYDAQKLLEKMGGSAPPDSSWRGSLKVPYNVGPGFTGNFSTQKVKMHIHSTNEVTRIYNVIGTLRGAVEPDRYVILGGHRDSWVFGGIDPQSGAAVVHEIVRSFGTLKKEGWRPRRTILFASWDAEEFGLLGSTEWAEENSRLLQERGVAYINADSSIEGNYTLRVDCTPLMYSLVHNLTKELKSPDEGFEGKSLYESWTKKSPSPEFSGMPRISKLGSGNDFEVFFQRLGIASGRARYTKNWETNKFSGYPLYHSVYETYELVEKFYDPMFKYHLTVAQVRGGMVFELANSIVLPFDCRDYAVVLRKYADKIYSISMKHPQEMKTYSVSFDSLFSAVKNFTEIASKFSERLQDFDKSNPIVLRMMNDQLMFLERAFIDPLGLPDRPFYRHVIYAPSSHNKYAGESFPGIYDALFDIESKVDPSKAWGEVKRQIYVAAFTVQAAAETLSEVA

For DOTA conjugated deJ591, the Immunoreactivity is reported as 95% in the data set on LNCaP cells, 95% with LNCaP cells (listed as Lot 243101) and 72% in the data set with LNCaP cells (listed as Lot BIOV983.2-2). The “Immunohistochemistry specificity and reactivity” value in the data set with prostate tissue is “specific to prostate tissue and the reactivity was equivalent to the naked deJ591 antibody”.

As for “J591: murine monoclonal antibody to the extracellular domain of human PSMA, hybridoma ATCC HB-12126”, the “binding site on the prostate specific membrane antigen molecule” value in data set [1] is on record as “bind to competing binding sites”.

Turning to ^111In-DOTA-deJ591, the Immunoreactivity in the data set with LNCaP cells is on record as 72%. For the same substance, in data set [2] (setting [10]), the “immune reaction to the antibody” value is given as “None of the patients developed an immune reaction to the antibody” and the “toxicity or side effects” value was “Neither this latter patient nor the remaining thirteen patients experienced any toxicity or side effects”. In data set [2] (ten patients with positive bone scans), the “mAb targeting to bony sites” value was “all ten demonstrated excellent mAb targeting to bony sites”. The “mAb targeting to soft tissue disease” value in data set [2] (three patients with soft tissue disease on CT) is given as “two demonstrated mAb targeting to these sites”. In data set [3] (four of twenty-two), the “false negative imaging in patients who had imagable disease” value was determined as 18%. Besides, the “Plasma clearance (T1/2)” value in [3] (human, in vivo, 20 mg) was 34 ± 5 h. Further, the “tumor targeting in patients who had imagable disease” value in [3] (sixteen of twenty-two, 20 mg, 185 MBq) came to 72.7%. Further, the tumor targeting entry in data set [4] (7 renal cell, 2 bladder, 1 colon cancer) is given as “ten of the fifteen patients”. The “decline in CEA” value in data set [4] (a colon cancer patient) is 50%. Further, in data set [4] (in vivo), the false negative imaging entry is “five of the fifteen patients” and the objective responses entry is recorded as “No objective responses occurred”.

Take “deJ591: deimmunized form of murine anti-PSMA antibody J591, human IgG1/kappa constant regions, NS0 cell line ATCC PTA-3709”: the figures for the blood activity result in data set [5] and in [6] were “significantly lower compared to that of 7E11” and 2.52±0.16 % ID/g, respectively. Besides, in [5], the tumor uptake was determined as 8.55±1.29 % injected dose/gram. For the same substance, in the data set on prostate cancer, the “human anti-deimmunized antibody (immune) response” value was “No detectable human anti-deimmunized antibody (immune) response developed”. Moreover, the “patients with soft tissue masses accurately targeted” value in data set [7] (eight out of nine) stood at 89%. Further, the “patients without documented soft tissue metastases with negative mAb scans” value in data set [7] (fifteen patients) worked out at 100%. Moreover, the “specificity, negative bone scans negative on the deJ591 scan” value in data set [7] (seven patients) is 100%. Moreover, the “concordance between standard imaging and mAb scans” value in [7] (soft tissue and bony metastases) was determined as 91%. Further, the “patients with bone metastases on bone scan accurately targeted” value in data set [7] (twelve of fifteen) was 80%. Besides, the Liver uptake in data set [4] (5 mg) was 28%+/−14; in data set [4] (10 mg), 17%+/−7; in data set [4] (20 mg), 13%+/−5. Besides, the “Plasma clearance (T1/2)” value in data set [4] (in vivo, 5 mg) came out at 21 ± 11 h; in [4] (in vivo, 10 mg) it was 24 ± 6 h; in [4] (in vivo, 20 mg) it was 37 ± 8 h. Further, the Toxicities result in data set [8] is “expected and minor”. The “Tumor Growth Delay” value in [9] (Comparison II, 12.96 mg/kg, q3dX5) was 1.9 days. Besides, in [9] (every three days for 5 doses, IV, equimolar to 14.5 mg/kg deJ591-DM1), the “effect on CWR22 xenograft tumor growth” value was “no significant effect”.
